Results as given in PubChem BioAssay AID342 (DTP/NCI, 2004).
Several values for one entry are separate records, joined by “and”; a condition that tells them apart may be missing. Identical values can stand only once.

Test system: Swiss mice, Sarcoma 180 sc, mean tumor weight T/C
Experiment: NCI In Vivo Anticancer Drug Screen. Data for tumor model Sarcoma 180 (subcutaneous) in Swiss mice
Conditions: endpoint: mean tumor weight, higher = larger tumour
How it was run: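 Tumor-bearing mice, transplantable tumor; readout survival or tumor size; result = T/C, treated vs vehicle control.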

[1] = dose: 2.5 mg/kg/injection, schedule: Q01DX007 (sc), vehicle: steriod suspending solution
[2] = dose: 5.0 mg/kg/injection, schedule: Q01DX007 (sc), vehicle: steriod suspending solution
[3] = dose: 10.0 mg/kg/injection, schedule: Q01DX007 (sc), vehicle: steriod suspending solution

Question: For `COC12C(COC(N)=O)C3=C(C(=O)C(C)=C(N)C3=O)N1CC1C2N1C` (centres undefined), which T/C (dose: 0.62 mg/kg/injection, schedule: Q#A X014 (ip), vehicle: carboxymethylcellulose (CMC)) is on record?
Answer: 62 % of control

Question: And the T/C (dose: 1.25 mg/kg/injection, schedule: Q#A X014 (ip), vehicle: carboxymethylcellulose (CMC))?
Answer: 123 % of control

Question: And the T/C (dose: 7.5 mg/kg/injection, schedule: Q#A X014 (ip), vehicle: carboxymethylcellulose (CMC))?
Answer: 65 % of control

Question: What about the T/C (dose: 15.0 mg/kg/injection, schedule: Q#A X014 (ip), vehicle: carboxymethylcellulose (CMC)) of the same compound?
Answer: 6 % of control and 16 % of control and 25 % of control

Question: What about the T/C (dose: 20.0 mg/kg/injection, schedule: Q#A X014 (ip), vehicle: carboxymethylcellulose (CMC)) of the same compound?
Answer: 2 % of control

Question: Which results are given for `COc1ccc2c(c1)CC[C@@H]1[C@@H]2CC[C@]2(C)[C@H](O)[C@H](O)C[C@@H]12`?
Answer: T/C (dose: 0.5 mg/kg/injection, schedule: Q01DX007 (sc), vehicle: steriod suspending solution): 117 % of control; T/C (dose: 1.25 mg/kg/injection, schedule: Q01DX007 (sc), vehicle: steriod suspending solution): 81 % of control; T/C [1]: 66 % of control and 90 % of control; T/C [2]: 60 % of control; T/C [3]: 61 % of control

Question: For `NC(=O)c1cn(C2OC(CO)C(O)C2O)c2ncnc(N)c12` (centres undefined), which T/C (dose: 0.5 mg/kg/injection, schedule: Q01DX007 (ip), vehicle: carboxymethylcellulose (CMC)) is on record?
Answer: 87 % of control

Question: What does the source list for `CC(C)C(=O)OCC1OC(n2cnc3c(=S)nc(N)[nH]c32)C(OC(=O)C(C)C)C1OC(=O)C(C)C` (centres undefined)?
Answer: T/C (dose: 6.0 mg/kg/injection, schedule: Q01DX007 (ip), vehicle: carboxymethylcellulose (CMC)): 72 % of control; T/C (dose: 9.0 mg/kg/injection, schedule: Q01DX007 (ip), vehicle: carboxymethylcellulose (CMC)): 42 % of control; T/C (dose: 14.0 mg/kg/injection, schedule: Q01DX007 (ip), vehicle: methylcellulose (MC)): 42 % of control; T/C (dose: 21.0 mg/kg/injection, schedule: Q01DX007 (ip), vehicle: carboxymethylcellulose (CMC)): 5 % of control and 21 % of control; T/C (dose: 21.0 mg/kg/injection, schedule: Q01DX007 (ip), vehicle: methylcellulose (MC)): 29 % of control; T/C (dose: 31.0 mg/kg/injection, schedule: Q01DX007 (ip), vehicle: carboxymethylcellulose (CMC)): 7 % of control; T/C (dose: 31.0 mg/kg/injection, schedule: Q01DX007 (ip), vehicle: methylcellulose (MC)): 22 % of control

Question: For `COC(=O)C1=CO[C@@H](C)[C@@H]2Cn3ccc4c5ccccc5nc-4c3C[C@H]12`, which T/C (dose: 10.0 mg/kg/injection, schedule: Q01DX007 (ip), vehicle: other) is on record?
Answer: 113 % of control

Question: And the T/C (dose: 50.0 mg/kg/injection, schedule: Q01DX007 (ip), vehicle: other)?
Answer: 74 % of control

Question: Which results are given for `COc1ccc(CSc2ncnc3nc[nH]c23)cc1`?
Answer: T/C (dose: 55.5 mg/kg/injection, schedule: Q#A X014 (ip), vehicle: methylcellulose (MC)): 48 % of control; T/C (dose: 83.0 mg/kg/injection, schedule: Q#A X014 (ip), vehicle: methylcellulose (MC)): 29 % of control; T/C (dose: 125.0 mg/kg/injection, schedule: Q#A X014 (ip), vehicle: methylcellulose (MC)): 14 % of control; T/C (dose: 187.5 mg/kg/injection, schedule: Q#A X014 (ip), vehicle: methylcellulose (MC)): 10 % of control

Question: How did the T/C [1] turn out when `CC(=O)OCC(=O)[C@@]1(O)CC[C@H]2[C@@H]3C[C@H](F)C4=CC(=O)CC[C@]4(C)[C@H]3C(=O)C[C@@]21C` was run?
Answer: 60 % of control

Question: What about the T/C [2] of the same compound?
Answer: 49 % of control

Question: And the T/C [3]?
Answer: 51 % of control

Question: What about the T/C (dose: 19.0 mg/kg/injection, schedule: Q01DX007 (sc), vehicle: steriod suspending solution) of the same compound?
Answer: 41 % of control

Question: And the T/C (dose: 29.0 mg/kg/injection, schedule: Q01DX007 (sc), vehicle: steriod suspending solution)?
Answer: 31 % of control

Question: `COC(=O)C1(N)CCCC1` was tested. Which T/C (dose: 60.0 mg/kg/injection, schedule: Q01DX007 (ip), vehicle: carboxymethylcellulose (CMC)) did it give?
Answer: 59 % of control

Question: What about the T/C (dose: 90.0 mg/kg/injection, schedule: Q01DX007 (ip), vehicle: carboxymethylcellulose (CMC)) of the same compound?
Answer: 42 % of control

Question: And the T/C (dose: 135.0 mg/kg/injection, schedule: Q01DX007 (ip), vehicle: carboxymethylcellulose (CMC))?
Answer: 33 % of control

Question: What about the T/C (dose: 202.0 mg/kg/injection, schedule: Q01DX007 (ip), vehicle: carboxymethylcellulose (CMC)) of the same compound?
Answer: 20 % of control

Question: Which T/C (dose: 16.5 mg/kg/injection, schedule: Q#A X014 (ip), vehicle: saline) does the source give for `O=C1C=CC(=Nc2ccc3c(c2)C(Br)c2ccccc2-3)O1` (centres undefined) here?
Answer: 57 % of control and 75 % of control

Question: And the T/C (dose: 37.5 mg/kg/injection, schedule: Q#A X014 (ip), vehicle: saline)?
Answer: 100 % of control

Question: What about the T/C (dose: 56.25 mg/kg/injection, schedule: Q#A X014 (ip), vehicle: saline) of the same compound?
Answer: 73 % of control

Question: With `O=c1[nH]cc(F)c(=O)[nH]1` as the compound, how does the T/C (dose: 3.12 mg/kg/injection, schedule: Q#A X014 (ip), vehicle: carboxymethylcellulose (CMC)) read?
Answer: 83 % of control

Question: What about the T/C (dose: 6.25 mg/kg/injection, schedule: Q#A X014 (ip), vehicle: carboxymethylcellulose (CMC)) of the same compound?
Answer: 100 % of control

Question: What about the T/C (dose: 6.3 mg/kg/injection, schedule: Q#A X014 (ip), vehicle: carboxymethylcellulose (CMC)) of the same compound?
Answer: 83 % of control

Question: And the T/C (dose: 9.5 mg/kg/injection, schedule: Q#A X014 (ip), vehicle: carboxymethylcellulose (CMC))?
Answer: 48 % of control

Question: And the T/C (dose: 12.5 mg/kg/injection, schedule: Q#A X014 (ip), vehicle: carboxymethylcellulose (CMC))?
Answer: 90 % of control

Question: And the T/C (dose: 12.66 mg/kg/injection, schedule: Q#A X014 (ip), vehicle: carboxymethylcellulose (CMC))?
Answer: 39 % of control

Question: And the T/C (dose: 15.2 mg/kg/injection, schedule: Q01DX007 (ip), vehicle: carboxymethylcellulose (CMC))?
Answer: 73 % of control and 89 % of control

Question: What about the T/C (dose: 19.0 mg/kg/injection, schedule: Q#A X014 (ip), vehicle: carboxymethylcellulose (CMC)) of the same compound?
Answer: 2 % of control

Question: And the T/C (dose: 25.0 mg/kg/injection, schedule: Q#A X014 (ip), vehicle: carboxymethylcellulose (CMC))?
Answer: 25 % of control

Question: What about the T/C (dose: 25.3 mg/kg/injection, schedule: Q01DX007 (ip), vehicle: carboxymethylcellulose (CMC)) of the same compound?
Answer: 76 % of control

Question: And the T/C (dose: 25.33 mg/kg/injection, schedule: Q01DX007 (ip), vehicle: carboxymethylcellulose (CMC))?
Answer: 53 % of control

Question: What does the source list for `CC(=O)OCC1OC(n2cnc3c(=S)nc[nH]c32)C(OC(C)=O)C1OC(C)=O` (centres undefined)?
Answer: T/C (dose: 20.0 mg/kg/injection, schedule: Q01DX007 (ip), vehicle: carboxymethylcellulose (CMC)): 81 % of control; T/C (dose: 30.0 mg/kg/injection, schedule: Q01DX007 (ip), vehicle: carboxymethylcellulose (CMC)): 75 % of control; T/C (dose: 45.0 mg/kg/injection, schedule: Q01DX007 (ip), vehicle: carboxymethylcellulose (CMC)): 54 % of control

Question: How did the T/C (dose: 4.0 mg/kg/injection, schedule: Q01DX007 (ip), vehicle: carboxymethylcellulose (CMC)) turn out when `O=C1c2ccccc2C(=O)N1CCF` was run?
Answer: 90 % of control

Question: And the T/C (dose: 8.0 mg/kg/injection, schedule: Q01DX007 (ip), vehicle: carboxymethylcellulose (CMC))?
Answer: 72 % of control

Question: How did the T/C (dose: 25.0 mg/kg/injection, schedule: Q01DX007 (ip), vehicle: carboxymethylcellulose (CMC)) turn out when `CN(C)[C@@H]1C(=O)C(C(=O)NCNc2nc(=S)c3[nH]cnc3[nH]2)=C(O)[C@@]2(O)C(=O)C3=C(O)c4c(O)cccc4[C@@](C)(O)[C@H]3C[C@@H]12` was run?
Answer: 26 % of control

Question: What about the T/C (dose: 50.0 mg/kg/injection, schedule: Q01DX007 (ip), vehicle: carboxymethylcellulose (CMC)) of the same compound?
Answer: 15 % of control

Question: `C[C@]12CC[C@H](O)C[C@@H]1CC[C@@H]1[C@@H]2C(=O)C[C@]2(C)C3=CC(=O)O[C@H]3C[C@@H]12` was tested. Which T/C [2] did it give?
Answer: 103 % of control

Question: What about the T/C [3] of the same compound?
Answer: 97 % of control

Question: And the T/C (dose: 40.0 mg/kg/injection, schedule: Q01DX007 (sc), vehicle: steriod suspending solution)?
Answer: 95 % of control

Question: With `CC1=C(CO)C(=O)O[C@@H]([C@@H](C)[C@H]2CC[C@H]3[C@@H]4C[C@H]5O[C@]56[C@@H](O)C=CC(=O)[C@]6(C)[C@H]4CC[C@]23C)C1` as the compound, how does the T/C (dose: 10.0 mg/kg/injection, schedule: Q01DX007 (ip), vehicle: carboxymethylcellulose (CMC)) read?
Answer: 64 % of control

Question: And the T/C (dose: 13.3 mg/kg/injection, schedule: Q01DX007 (ip), vehicle: saline)?
Answer: 97 % of control

Question: What about the T/C (dose: 13.7 mg/kg/injection, schedule: Q01DX007 (ip), vehicle: saline) of the same compound?
Answer: 85 % of control

Question: What about the T/C (dose: 16.0 mg/kg/injection, schedule: Q01DX007 (ip), vehicle: saline) of the same compound?
Answer: 77 % of control

Question: And the T/C (dose: 16.0 mg/kg/injection, schedule: Q01DX007 (sc), vehicle: olive oil, sesame oil, peanut oil)?
Answer: 90 % of control

Question: And the T/C (dose: 16.0 mg/kg/injection, schedule: Q01DX007 (sc), vehicle: steriod suspending solution)?
Answer: 93 % of control

Question: What about the T/C (dose: 18.0 mg/kg/injection, schedule: Q01DX007 (ip), vehicle: saline) of the same compound?
Answer: 60 % of control

Question: What about the T/C (dose: 24.0 mg/kg/injection, schedule: Q01DX007 (ip), vehicle: saline) of the same compound?
Answer: 54 % of control

Question: What about the T/C (dose: 24.0 mg/kg/injection, schedule: Q01DX007 (sc), vehicle: olive oil, sesame oil, peanut oil) of the same compound?
Answer: 109 % of control

Question: What about the T/C (dose: 24.0 mg/kg/injection, schedule: Q01DX007 (sc), vehicle: steriod suspending solution) of the same compound?
Answer: 66 % of control

Question: What about the T/C (dose: 33.0 mg/kg/injection, schedule: Q01DX007 (ip), vehicle: saline) of the same compound?
Answer: 25 % of control

Question: What about the T/C (dose: 36.0 mg/kg/injection, schedule: Q01DX007 (sc), vehicle: olive oil, sesame oil, peanut oil) of the same compound?
Answer: 77 % of control

Question: What about the T/C (dose: 36.0 mg/kg/injection, schedule: Q01DX007 (sc), vehicle: steriod suspending solution) of the same compound?
Answer: 79 % of control

Question: `C[C@]12CC[C@@H]3c4ccc(OC(=O)c5ccccc5)cc4CC[C@H]3[C@@H]1CC[C@@H]2O` was tested. Which T/C (dose: 125.0 mg/kg/injection, schedule: Q01DX007 (sc), vehicle: steriod suspending solution) did it give?
Answer: 47 % of control

Question: What about the T/C (dose: 250.0 mg/kg/injection, schedule: Q01DX007 (sc), vehicle: steriod suspending solution) of the same compound?
Answer: 55 % of control

Question: And the T/C (dose: 400.0 mg/kg/injection, schedule: Q01DX007 (sc), vehicle: steriod suspending solution)?
Answer: 58 % of control and 83 % of control

Question: What about the T/C (dose: 666.0 mg/kg/injection, schedule: Q01DX007 (sc), vehicle: steriod suspending solution) of the same compound?
Answer: 59 % of control and 62 % of control
